pIC50: −log10 of the molar value.

This experiment concerns the target T1, SMYD3 (Homo sapiens, UniProt Q9H7B4).
T1 sequence (Q9H7B4 1-428): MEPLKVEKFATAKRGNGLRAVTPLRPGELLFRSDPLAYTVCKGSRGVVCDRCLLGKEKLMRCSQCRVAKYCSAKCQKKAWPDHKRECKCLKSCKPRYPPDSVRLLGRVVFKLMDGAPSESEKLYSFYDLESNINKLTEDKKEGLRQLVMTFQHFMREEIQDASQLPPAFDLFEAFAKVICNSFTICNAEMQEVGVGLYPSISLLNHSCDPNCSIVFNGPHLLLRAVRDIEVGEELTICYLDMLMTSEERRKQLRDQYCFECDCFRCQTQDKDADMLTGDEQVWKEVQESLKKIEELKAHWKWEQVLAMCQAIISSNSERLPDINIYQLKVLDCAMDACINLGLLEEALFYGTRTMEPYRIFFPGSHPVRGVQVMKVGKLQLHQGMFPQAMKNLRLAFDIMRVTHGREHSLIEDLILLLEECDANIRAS
As to the kind of experiment: SMYD3 biochemical assay (MTase-Glo, MAP3K2 peptide substrate). The note with it: Table 3; MTase assay, MAP3K2 peptide substrate; read-out: IC50. The gist of the method: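 Methylation of MAP3K2 peptide (10 µM final) with SAM (1.0 µM final) by SMYD3, 30 min at room temperature. SAH formed was enzymatically converted to ATP and detected as luminescence with MTase-Glo reagents; IC50 by non-linear regression.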
In general, pIC50 refers to the IC50 on a negative log10 scale, so that one unit is a factor of ten. Take `CCCOC(=O)N1CCN(C(=O)c2ccc3c(Cl)cc(-c4ccc(CNC)cc4)nc3c2)C[C@H]1C` [B119, Propyl (R)-4-(4-chloro-2-(4-((methylamino)methyl)phenyl)quinoline-7-carbonyl)-2-methylpiperazine-1-carboxylate]: the pIC50 is 7.38. As to `CCCOC(=O)N1CCN(C(=O)c2ccc3c(Cl)cc(-c4ccc(OC)c(CNC)c4)nc3c2)CC1` [B120, Propyl 4-(4-chloro-2-(4-methoxy-3-((methylamino)methyl)phenyl)quinoline-7-carbonyl)piperazine-1-carboxylate], the negative logarithm of the IC50 (pIC50) was 7.46. On to `CCCOC(=O)N1CCN(C(=O)c2ccc3c(Cl)cc(-c4ccc(NC(C)=O)cc4)nc3c2)C[C@H]1C` [B121, Propyl (R)-4-(2-(4-acetamidophenyl)-4-chloroquinoline-7-carbonyl)-2-methylpiperazine-1-carboxylate], for which the pIC50 was 7.26.

Take `CCCOC(=O)N1CCN(C(=O)c2ccc3c(Cl)c(C)c(-c4ccc(CN)cc4)nc3c2)C[C@H]1C` [B122, Propyl (R)-4-(2-(4-(aminomethyl)phenyl)-4-chloro-3-methylquinoline-7-carbonyl)-2-methylpiperazine-1-carboxylate]: the negative-log IC50 (pIC50) was 7.15. The same measure for `CCCOC(=O)N1CCN(C(=O)c2ccc3c(Cl)cc(-c4ccc5c(cnn5C)c4)nc3c2)CC1` [B123]: 6.82; for `CCCOC(=O)N1CCN(C(=O)c2ccc3c(Cl)cc(-c4cccc(CNC)c4)nc3c2)C[C@H]1C` [B124, Propyl (R)-4-(4-chloro-2-(3-((methylamino)methyl)phenyl)quinoline-7-carbonyl)-2-methylpiperazine-1-carboxylate]: 7.22.

For the compound `CCCOC(=O)N1CCN(C(=O)c2ccc3c(Cl)cc(C4CC4)nc3c2)CC1` [B125, Propyl 4-(4-chloro-2-cyclopropylquinoline-7-carbonyl)piperazine-1-carboxylate], the negative logarithm of the IC50 (pIC50) is 6.25. For the compound `CCCOC(=O)N1CCN(C(=O)c2ccc3c(Cl)cc(-c4ccc(CN(C)C)s4)nc3c2)CC1` [B126, Propyl 4-(4-chloro-2-(5-((dimethylamino)methyl)thiophen-2-yl)quinoline-7-carbonyl)piperazine-1-carboxylate], the pIC50 is 7.05. The same measure for `CCCOC(=O)N1CCN(C(=O)c2ccc3c(Cl)cc(-c4ccc5nn(C)cc5c4)nc3c2)CC1` [B127, Propyl 4-(4-chloro-2-(2-methyl-2H-indazol-5-yl)quinoline-7-carbonyl)piperazine-1-carboxylate]: 7.68. The same measure for `CCCOC(=O)N1CCN(C(=O)c2ccc3c(Cl)cc(-c4ccc5[nH]ncc5c4)nc3c2)CC1` [B128, Propyl 4-(4-chloro-2-(1H-indazol-5-yl)quinoline-7-carbonyl)piperazine-1-carboxylate]: 7.28.

Turning to `CCCOC(=O)N1CCN(C(=O)c2ccc3c(Cl)cc(-c4ccc5cn[nH]c5c4)nc3c2)CC1` [B129, Propyl 4-(4-chloro-2-(1H-indazol-6-yl)quinoline-7-carbonyl)piperazine-1-carboxylate], the negative-log IC50 (pIC50) was 7.06.

Regarding `CCCOC(=O)N1CCN(C(=O)c2ccc3c(Cl)cc(-c4ccn(C)c4)nc3c2)CC1` [B130, Propyl 4-(4-chloro-2-(1-methyl-1H-pyrrol-3-yl)quinoline-7-carbonyl)piperazine-1-carboxylate], the pIC50 was 7.64. Regarding `CCCOC(=O)N1CCN(C(=O)c2ccc3c(Cl)cc(-c4ccnc(OC)c4)nc3c2)C[C@H]1C` [B131, Propyl (R)-4-(4-chloro-2-(2-methoxypyridin-4-yl)quinoline-7-carbonyl)-2-methylpiperazine-1-carboxylate], the negative-log IC50 (pIC50) was 6.44.

For `CCCOC(=O)N1CCN(C(=O)c2ccc3c(Cl)cc(-c4cnc5[nH]ccc5c4)nc3c2)C[C@H]1C` [B132, Propyl (R)-4-(4-chloro-2-(1H-pyrrolo[2,3-b]pyridin-5-yl)quinoline-7-carbonyl)-2-methylpiperazine-1-carboxylate], the pIC50 was 6.77. As to `CCCOC(=O)N1CCN(C(=O)c2ccc3c(Cl)cc(C4(C)CC4)nc3c2)CC1` [B133, Propyl 4-(4-chloro-2-(1-methylcyclopropyl)quinoline-7-carbonyl)piperazine-1-carboxylate], the negative logarithm of the IC50 (pIC50) was 5.85.

Consider `CCCOC(=O)N1CCN(C(=O)c2ccc3c(Cl)cc(-c4ccc(-n5cccn5)cc4)nc3c2)CC1` [B134, Propyl 4-(2-(4-(1H-pyrazol-1-yl)phenyl)-4-chloroquinoline-7-carbonyl)piperazine-1-carboxylate], for which the negative logarithm of the IC50 (pIC50) is 6.22.

Consider `CCCOC(=O)N1CCN(C(=O)c2ccc3c(Cl)cc(-c4ccc(-c5ccn[nH]5)cc4)nc3c2)CC1` [B135, Propyl 4-(2-(4-(1H-pyrazol-5-yl)phenyl)-4-chloroquinoline-7-carbonyl)piperazine-1-carboxylate], for which the pIC50 was 6.40. Turning to `CCCOC(=O)N1CCN(C(=O)c2ccc3c(Cl)cc(-c4ccc(-c5cn[nH]c5)cc4)nc3c2)CC1` [B136, Propyl 4-(2-(4-(1H-pyrazol-4-yl)phenyl)-4-chloroquinoline-7-carbonyl)piperazine-1-carboxylate], the negative-log IC50 (pIC50) is 7.42. The same measure for `CCCOC(=O)N1CCN(C(=O)c2ccc3c(Cl)cc(-c4ccc(C(=O)O)c(C)c4)nc3c2)CC1` [B137, 4-(4-Chloro-7-(4-(propoxycarbonyl)piperazine-1-carbonyl)quinolin-2-yl)-2-methylbenzoic acid]: 5.44; for `CCCOC(=O)N1CCN(C(=O)c2ccc3c(Cl)cc(-c4cc[nH]n4)nc3c2)CC1` [B138, Propyl 4-(4-chloro-2-(1H-pyrazol-5-yl)quinoline-7-carbonyl)piperazine-1-carboxylate]: 6.08. The same measure for `CCCOC(=O)N1CCN(C(=O)c2ccc3c(Cl)cc(-c4ccc5[nH]cnc5c4)nc3c2)CC1` [B139, Propyl 4-(2-(1H-benzo[d]imidazol-5-yl)-4-chloroquinoline-7-carbonyl)piperazine-1-carboxylate]: 7.47; for `CCCOC(=O)N1CCN(C(=O)c2ccc3c(Cl)cc(-c4ccc5c(ccn5C)c4)nc3c2)CC1` [B140, Propyl 4-(4-chloro-2-(1-methyl-1H-indo1-5-yl)quinoline-7-carbonyl)piperazine-1-carboxylate]: 6.46. The same measure for `CCCOC(=O)N1CCN(C(=O)c2ccc3c(Cl)cc(-c4cccc5[nH]ncc45)nc3c2)CC1` [B141, Propyl 4-(4-chloro-2-(1H-indazol-4-yl)quinoline-7-carbonyl)piperazine-1-carboxylate]: 6.20.

With `CCCOC(=O)N1CCN(C(=O)c2ccc3c(Cl)cc(-c4cccc(CO)c4)nc3c2)C[C@H]1C` [B142, Propyl (R)-4-(4-chloro-2-(3-(hydroxymethyl)phenyl)quinoline-7-carbonyl)-2-methylpiperazine-1-carboxylate], the negative-log IC50 (pIC50) is 7.26. The same measure for `CCCOC(=O)N1CCN(C(=O)c2ccc3c(Cl)cc(-c4cccc(O)c4)nc3c2)CC1` [B143, Propyl 4-(4-chloro-2-(3-hydroxyphenyl)quinoline-7-carbonyl)piperazine-1-carboxylate]: 7.80; for `CCCOC(=O)N1CCN(C(=O)c2ccc3c(Cl)cc(-c4ccc5c(cnn5C)c4)nc3c2)C[C@@H]1C` [B144, Propyl (S)-4-(4-chloro-2-(1-methyl-1H-indazol-5-yl)quinoline-7-carbonyl)-2-methylpiperazine-1-carboxylate]: 7.74; for `CCCOC(=O)N1CCN(C(=O)c2ccc3c(Cl)cc(-c4cccc(CN)c4)nc3c2)C[C@@H]1C` [B145, Propyl (S)-4-(2-(3-(aminomethyl)phenyl)-4-chloroquinoline-7-carbonyl)-2-methylpiperazine-1-carboxylate]: 7.33.

Take `CCCOC(=O)N1CCN(C(=O)c2ccc3c(Cl)cc(-c4ccc(C(N)=O)cc4)nc3c2)C[C@@H]1C` [B146, Propyl (S)-4-(2-(4-carbamoylphenyl)-4-chloroquinoline-7-carbonyl)-2-methylpiperazine-1-carboxylate]: the negative-log IC50 (pIC50) was 7.38. The same measure for `CCCOC(=O)N1CCN(C(=O)c2ccc3c(Cl)cc(-c4cn[nH]c4)nc3c2)CC1` [B147, Propyl 4-(4-chloro-2-(1H-pyrazol-4-yl)quinoline-7-carbonyl)piperazine-1-carboxylate]: 6.82. As to `CCCOC(=O)N1CCN(C(=O)c2ccc3c(Cl)cc(-c4ccsc4)nc3c2)CC1` [B148, Propyl 4-(4-chloro-2-(thiophen-3-yl)quinoline-7-carbonyl)piperazine-1-carboxylate], the pIC50 is 7.00. In the case of `CCCOC(=O)N1CCN(C(=O)c2ccc3c(Cl)cc(-c4ccc(NC(C)=O)nc4)nc3c2)CC1` [B149, Propyl 4-(2-(6-acetamidopyridin-3-yl)-4-chloroquinoline-7-carbonyl)piperazine-1-carboxylate], the pIC50 was 6.96. The same measure for `CCCOC(=O)N1CCN(C(=O)c2ccc3c(Cl)cc(-c4ccc(F)c(CO)c4)nc3c2)CC1` [B150]: 6.55; for `CCCOC(=O)N1CCN(C(=O)c2ccc3c(Cl)cc(-c4ccc(F)c(C(N)=O)c4)nc3c2)CC1` [B151, Propyl 4-(2-(3-carbamoyl-4-fluorophenyl)-4-chloroquinoline-7-carbonyl)piperazine-1-carboxylate]: 6.21. The same measure for `CCCOC(=O)N1CCN(C(=O)c2ccc3c(Cl)cc(-c4ccc(F)c(C(=O)NC)c4)nc3c2)CC1` [B152, Propyl 4-(4-chloro-2-(4-fluoro-3-(methylcarbamoyl)phenyl)quinoline-7-carbonyl)piperazine-1-carboxylate]: 6.39.

For the origin of these results see patent US20190071416A1, “COMPOUNDS FOR TREATMENT OF CANCER AND EPIGENETICS” (Agency For Science, Technology and Research, priority 2015, published 2019).
